Laboratory results: patent publication US8404665B2, “In vivo use of glutathione S-transferase activated nitric oxide donors” (University of Utah Research Foundation, priority 2002, dated 2013)

Tests used:
Meth A = Meth A solid tumor cell growth; type: cell-based
Procedure: Cell Lines and Culture Conditions. HL-60, DLD1, and U937 cells were obtained from ATCC (Rockville, Md.). Meth A cells were from Dr. Wolfram Samlowski (University of Utah, Salt Lake City, Utah). The PPC-1 cell line was provided by Dr. Graeme Bolger (University of Alabama, Birmingham, Ala.). For the cell growth and apoptosis experiments, cells were cultured at a density of 150,000 cells/ml in RPMI-1640 with 10% fetal bovine serum at 37° C. in a 5% CO2 humidified atmosphere. Agents were added at the indicated concentrations 24 h after culture initiation. At the indicated time intervals, cells were harvested and washed twice in phosphate buffered saline (PBS) prior to processing for analysis of growth, differentiation, and apoptosis.
Cell Growth, Differentiation and Apoptosis Assays. The number of viable cells was determined using the MTT assay according to the manufacturer's protocol (Promega, Madison, Wis.) or using a Coulter counter. […] The assay is useful in calorimetric quantitation of cell viability and proliferation. In contrast, cell differentiation was evaluated using Wright and Non-Specific Esterase (NSE) staining of cells collected on microscope slides by cytospin as previously described (Magrinat, G. et al. (1992) Blood 80: 1880-1884). […]

HL-60 cells = assay: Subcutaneous HL-60 tumor implants in NOD/SCID mice; type: in vivo
Procedure: To study the in vivo antineoplastic potency of JS-K, NOD/SCID mice were injected in the flanks subcutaneously with HL-60 or PPC-1 cells (2.5×10^6 cells per flank). When subcutaneous tumors were palpable, treatment with JS-K or an equal volume of vehicle (20% dimethyl sulfoxide in PBS) was started using the indicated doses and route. Tumor size was measured daily or every other day using a Vernier caliper. Tumor volume was calculated using the formula: width×length×[(width+length)/2]×0.5236. Fifteen to 20 days after tumor cell implantation, animals were sacrificed by CO2 inhalation and tumors were collected for histochemical analysis.
Histological Analysis of Tumors. After sacrifice, subcutaneous tumors were dissected out, fixed in 10% formaldehyde and imbedded in paraffin. Four-um sections were cut and stained with Hematoxylin and Eosin.
To determine the in vivo therapeutic efficacy of JS-K, NOD/SCID mice were injected subcutaneously with 5×10^6 HL-60 cells in the flanks. When tumors were measurable (4 to 5 days after leukemia cell inoculation), the mice were divided into 2 groups that received either vehicle or JS-K at a dose of 4 μmol/kg administered intravenously 3 times per week. After seventeen days from the leukemia cell inoculation there appeared to be a significant difference in tumor volume between vehicle and JS-K treated animals: tumor volume was 9.51±1.22 and 4.15±1.06 cm^3 in vehicle and JS-K treated animals, respectively.

[1] = 4 μmol/kg i.v. 3 times per week

With `CCOC(=O)N1CCN(/[N+]([O-])=N/Oc2ccc([N+](=O)[O-])cc2[N+](=O)[O-])CC1` [JS-K, O^2-(2,4-dinitrophenyl) 1-[(4-ethoxycarbonyl)piperazin-1-yl]diazen-1-ium-1,2-diolate] the “IC50 relative to leukemia lines” value (Meth A) was “an order of magnitude greater than those for the two leukemia lines”, the “leukemia implant growth in vivo” value (HL-60 cells; [1]) was “significant delay in leukemia implant growth in vivo” and the “tumor histology (necrosis) at experiment termination” value (HL-60 cells; [1]) was “extensive necrosis”. For the same compound, the tumor volume (HL-60 cells; 4 μmol/kg i.v. 3 times per week, seventeen days from inoculation, vehicle 9.51±1.22) was 4.15±1.06 cm^3, the “cell necrosis in tumors (histologic analysis)” value (HL-60 cells; controls ˜10%) was “more than 50%” and the “reduction in tumor volume” value (HL-60 cells; sixteen days after starting therapy, versus control) was “more than 50%”. The average tumor volume (HL-60 cells; sixteen days after starting therapy, control 8.34±0.72, P=0.039) was 3.13±1.14 cm^3.
